# Data as given in patent US20260000710A1, “Novel Treatments for Cardiovascular Related Disease” (priority 2022, published 2026).
# Test system: AIM+ and AIM− CD4+ T cells from peptide-expanded PBMCs
# Test: TCRβ CDR3 sequencing (immunoSEQ) of sorted AIM+ and AIM− CD4+ T cells;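 also: genomic DNA from sorted cells as template, amplification bias-controlled two-step multiplex PCR, APOB6 pool at 10 µg/ml per peptide, CD40 blocking antibody added before restimulation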
# Assay type: cell-based, human
# Settings: for Log10 Odds Ratio: AIM+ vs AIM−; for No. of clone-specific productive templates, AIM+ CD4+ T (Total 18591) / No. of clone-specific productive templates, AIM− CD4+ T (Total 7206) / No. of clone-specific productive templates, AIM+ CD4+ T (Total 21697) / No. of clone-specific productive templates, AIM− CD4+ T (Total 49956) / No. of clone-specific productive templates, AIM+ CD4+ T (Total 34927) / No. of clone-specific productive templates, AIM− CD4+ T (Total 45364) / No. of clone-specific productive templates, AIM+ CD4+ T (Total 16700) / No. of clone-specific productive templates, AIM− CD4+ T (Total 21770) / No. of clone-specific productive templates, AIM+ CD4+ T (Total 31354) / No. of clone-specific productive templates, AIM− CD4+ T (Total 48987) / No. of clone-specific productive templates, AIM+ CD4+ T (Total 25796) / No. of clone-specific productive templates, AIM− CD4+ T (Total 25928): PBMCs expanded 14 days and restimulated 24 h with APOB6
# Method: To examine the clonotypic identities of autoreactive CD4^+ T cells, the hypervariable TCRβ DR3 region was sequenced using a DNA-based sequencing technique^42 (Adaptive Biotechnologies), which have been used to profile clonal populations of other self-antigen specific T cells^43. PBMCs from six HLA-typed donors (demographics and HLA-II alleles in Tables 5, 6) were expanded (14-days) and restimulated (24 h) with the APOB6 pool. To isolate viable responder and non-responder CD4^+ T cells from the same pool of stimulated PBMCs (schematic in FIG. 15A, gating strategy in FIG. 151B), the inventors used the AIM assay protocol (FIGS. 2A to 2D).
# As a second control, unexpanded PBMCs (day 0 samples), sorted into naïve, central memory (TCM) and effector memory (TEM) CD4^+ T cells, were used (gating strategy in FIG. 15C). This allowed tracing the APOB6-specific AIM^+ T cell clones in naïve and memory T cell lineages. Genomic DNA, isolated from sorted AIM^− and AIM^+ Day 14 samples and naïve, TCM and TEM Day 0 samples from six donors, was used as the starting material for TCRVβ sequencing (schematic in FIG. 15A) using an optimized two-step, amplification bias-controlled multiplex-PCR-based approach^42,44 (immunoSEQ Human TCRB Assay, Adaptive Biotechnologies).
# For isolation of APOB epitope-specific CD4^+ T cells, PBMCs were expanded with the APOB6pool (10 μg/ml per peptide). On Day 14, cultured cells were washed and re-stimulated with APOB6 (10 μg/ml) for 24 h (AIM assay protocol). 1 μg/ml of CD40 blocking antibody was added 15 min before stimulation. At the end of the stimulation period, cells were washed with FACS buffer (PBS w/o Ca/Mg, 2% FCS). Day 14 (APOB6 expanded and restimulated) and Day 0 (ex vivo samples with no in vitro stimulation) PBMC samples from six donors were resuspended in a staining master mix containing anti-human Fc-Block (Biolegend), fixable viability dye and antibodies against T cell and non-T cell (Dump) surface markers, activation markers and memory markers (antibody details in Table 4). Viability dye was used at 1:1000 dilution, antibodies were used at a final dilution of 1:100 (activation markers) and 1:200 (other extracellular markers). […] Gates were set based on unstimulated and PHA-L stimulated negative and positive controls, respectively. Antigen-specific AIM^+ and non-specific control AIM^− CD4^+ T cells from Day 14 samples and naïve (CD45RA^+CCR7^+), central memory (CD45RA^−CCR7^+, TCM) and effector memory (CD45RA^−CCR7^−, TEM) CD4^+ T cells from Day 0 PBMCs were sorted into HEPES-containing buffer (PBS with 2% FBS and 0.025 M HEPES) using BD FACSAria flow cytometry sorters. Acquired data was analyzed with FlowJo software.
# Genomic DNA was extracted from sorted cells using QIAamp DNA Micro Kit (QIAGEN) and sent to Adaptive Biotechnologies for survey-level TCRβ sequencing (depth ˜60,000 reads) using their established immunoSEQ platform^7. Briefly, highly variable CDR3 regions on somatically rearranged human TCRβ chains were amplified with a two-step multiplex PCR approach using optimized set of primers that target the VDJ region spanning each unique CDR3B. A synthetic repertoire containing all possible V/J templates is used as a built-in control to quantify and correct PCR amplification biases. Processing of raw Illumina sequence reads, filtering, demultiplexing, clustering and mapping of CDR3 sequences and annotation of VDJ genes using IMGT database sequences were performed at Adaptive Biotechnologies and made available for download and analysis.
substance,measurement,setting,value
"CASSKVNEKLFF: TCRβ CDR3 clone, TCRBV03-01/03-02+TCRBJ01-04, Donor 2",Log10 Odds Ratio,Donor 2,1.19
same,"No. of clone-specific productive templates, AIM+ CD4+ T (Total 18591)",Donor 2,361
same,"No. of clone-specific productive templates, AIM− CD4+ T (Total 7206)",Donor 2,9
"CASSLAGTGTNEQFF: TCRβ CDR3 clone, TCRBV05-01+TCRBJ02-01, Donor 1",Log10 Odds Ratio,Donor 1,2.97
same,"No. of clone-specific productive templates, AIM+ CD4+ T (Total 21697)",Donor 1,396
same,"No. of clone-specific productive templates, AIM− CD4+ T (Total 49956)",Donor 1,1
"CASSLALGTGDTEAFF: TCRβ CDR3 clone, TCRBV05-01+TCRBJ01-01, Donor 1",Log10 Odds Ratio,Donor 1,2.98
same,"No. of clone-specific productive templates, AIM+ CD4+ T (Total 21697)",Donor 1,410
same,"No. of clone-specific productive templates, AIM− CD4+ T (Total 49956)",Donor 1,1
"CASSLERGAYGYTF: TCRβ CDR3 clone, TCRBV07-02+TCRBJ01-02, Donor 6",Log10 Odds Ratio,Donor 6,2.81
same,"No. of clone-specific productive templates, AIM+ CD4+ T (Total 34927)",Donor 6,963
same,"No. of clone-specific productive templates, AIM− CD4+ T (Total 45364)",Donor 6,2
"CASSLPRDRDYGYTF: TCRβ CDR3 clone, TCRBV06-02+TCRBJ01-02, Donor 3",Log10 Odds Ratio,Donor 3,2.55
same,"No. of clone-specific productive templates, AIM+ CD4+ T (Total 16700)",Donor 3,269
same,"No. of clone-specific productive templates, AIM− CD4+ T (Total 21770)",Donor 3,1
"CASSLRTGIINEQFF: TCRβ CDR3 clone, TCRBV05-01+TCRBJ02-01, Donor 5",Log10 Odds Ratio,Donor 5,11.77
same,"No. of clone-specific productive templates, AIM+ CD4+ T (Total 31354)",Donor 5,383
same,"No. of clone-specific productive templates, AIM− CD4+ T (Total 48987)",Donor 5,0
"CASSLTRIPEQYF: TCRβ CDR3 clone, TCRBV28-01+TCRBJ02-07, Donor 1",Log10 Odds Ratio,Donor 1,0.90
same,"No. of clone-specific productive templates, AIM+ CD4+ T (Total 21697)",Donor 1,459
same,"No. of clone-specific productive templates, AIM− CD4+ T (Total 49956)",Donor 1,136
"CASSLYAGQNTEAFF: TCRβ CDR3 clone, TCRBV07-02+TCRBJ01-01, Donor 6",Log10 Odds Ratio,Donor 6,2.35
same,"No. of clone-specific productive templates, AIM+ CD4+ T (Total 34927)",Donor 6,344
same,"No. of clone-specific productive templates, AIM− CD4+ T (Total 45364)",Donor 6,2
"CASSPADREETQYF: TCRβ CDR3 clone, TCRBV18-01+TCRBJ02-05, Donor 3",Log10 Odds Ratio,Donor 3,0.99
same,"No. of clone-specific productive templates, AIM+ CD4+ T (Total 16700)",Donor 3,410
same,"No. of clone-specific productive templates, AIM− CD4+ T (Total 21770)",Donor 3,56
"CASSPDFSGANVLTF: TCRβ CDR3 clone, TCRBV05-06+TCRBJ02-06, Donor 6",Log10 Odds Ratio,Donor 6,2.17
same,"No. of clone-specific productive templates, AIM+ CD4+ T (Total 34927)",Donor 6,339
same,"No. of clone-specific productive templates, AIM− CD4+ T (Total 45364)",Donor 6,3
"CASSPGREPGNTIYF: TCRβ CDR3 clone, TCRBV07-09+TCRBJ01-03, Donor 5",Log10 Odds Ratio,Donor 5,0.57
same,"No. of clone-specific productive templates, AIM+ CD4+ T (Total 31354)",Donor 5,422
same,"No. of clone-specific productive templates, AIM− CD4+ T (Total 48987)",Donor 5,179
"CASSPLLYSGNTIYF: TCRβ CDR3 clone, TCRBV07-02+TCRBJ01-03, Donor 3",Log10 Odds Ratio,Donor 3,12.09
same,"No. of clone-specific productive templates, AIM+ CD4+ T (Total 16700)",Donor 3,347
same,"No. of clone-specific productive templates, AIM− CD4+ T (Total 21770)",Donor 3,0
"CASSPQPSTDTQYF: TCRβ CDR3 clone, TCRBV07-08+TCRBJ02-03, Donor 4",Log10 Odds Ratio,Donor 4,1.60
same,"No. of clone-specific productive templates, AIM+ CD4+ T (Total 25796)",Donor 4,431
same,"No. of clone-specific productive templates, AIM− CD4+ T (Total 25928)",Donor 4,11
"CASSPRAGGAVREQYF: TCRβ CDR3 clone, TCRBV05-08+TCRBJ02-07, Donor 2",Log10 Odds Ratio,Donor 2,12.03
same,"No. of clone-specific productive templates, AIM+ CD4+ T (Total 18591)",Donor 2,375
same,"No. of clone-specific productive templates, AIM− CD4+ T (Total 7206)",Donor 2,0
"CASSPRGAVNTEAFF: TCRβ CDR3 clone, TCRBV07-09+TCRBJ01-01, Donor 4",Log10 Odds Ratio,Donor 4,0.88
same,"No. of clone-specific productive templates, AIM+ CD4+ T (Total 25796)",Donor 4,950
same,"No. of clone-specific productive templates, AIM− CD4+ T (Total 25928)",Donor 4,130
"CASSQEVGGDHGYTF: TCRβ CDR3 clone, TCRBV04-03+TCRBJ01-02, Donor 3",Log10 Odds Ratio,Donor 3,2.41
same,"No. of clone-specific productive templates, AIM+ CD4+ T (Total 16700)",Donor 3,759
same,"No. of clone-specific productive templates, AIM− CD4+ T (Total 21770)",Donor 3,4
"CASSQTALYSGNTIYF: TCRβ CDR3 clone, TCRBV19-01+TCRBJ01-03, Donor 5",Log10 Odds Ratio,Donor 5,12.08
same,"No. of clone-specific productive templates, AIM+ CD4+ T (Total 31354)",Donor 5,777
same,"No. of clone-specific productive templates, AIM− CD4+ T (Total 48987)",Donor 5,0
"CASSQTGQGYNEQFF: TCRβ CDR3 clone, TCRBV23-01+TCRBJ02-01, Donor 6",Log10 Odds Ratio,Donor 6,1.49
same,"No. of clone-specific productive templates, AIM+ CD4+ T (Total 34927)",Donor 6,308
same,"No. of clone-specific productive templates, AIM− CD4+ T (Total 45364)",Donor 6,13
"CASSSLTPEAYGYTF: TCRβ CDR3 clone, TCRBV28-01+TCRBJ01-02, Donor 2",Log10 Odds Ratio,Donor 2,2.21
same,"No. of clone-specific productive templates, AIM+ CD4+ T (Total 18591)",Donor 2,796
same,"No. of clone-specific productive templates, AIM− CD4+ T (Total 7206)",Donor 2,2
"CASSSSGSNYNEQFF: TCRβ CDR3 clone, TCRBV03-01/03-02+TCRBJ02-01, Donor 3",Log10 Odds Ratio,Donor 3,1.19
same,"No. of clone-specific productive templates, AIM+ CD4+ T (Total 16700)",Donor 3,597
same,"No. of clone-specific productive templates, AIM− CD4+ T (Total 21770)",Donor 3,52
